{
  "source": "patent US20070014734A1",
  "about": "“Glucuronidated nebivolol metabolites” (priority 2005, published 2007)",
  "key": {"[1]": {"tested_on": "Human Umbilical Vein Endothelial Cells (HUVEC)", "assay": "Acute NO release from HUVEC of white and black American donors, electrochemical nanosensors", "type": "cell-based", "conditions": "for Acute NO Release, Black Donors NO: HUVEC from black American donors; for Acute NO Release, Black Donors NO / Acute NO Release, White Donors NO: acute treatment 1.0 μM, mean±S.D. (n=5); for Acute NO Release, White Donors NO: HUVEC from white donors; for Acute [NO]/[ONOO−] Release Ratio, Black Donors / Acute [NO]/[ONOO−] Release Ratio, White Donors: ratio of NO (Table 1) to ONOO− (Table 3); for NO release after acute treatment (in words): endothelial cells from both white and black American donors, 1.0 μM", "protocol": "The acute effects of nebivolol racemate, its separate enantiomers, and four stereoselective glucuronide metabolites on endothelial-dependent NO release were tested in Human Umbilical Vein Endothelial Cells (HUVEC). The tissue is isolated from normotensive white and black American donors with matched risk factor profiles. Production of NO is recorded using electrochemical nanosensors following acute treatment with the drugs at 1.0 μM (n=5).\n(§1) The donors were between 20-25 years of age, with a mean body mass index (in kg/m^2), of 22.6±1.4 for white donors and 23.1±1.7 for black donors. The identification of race was defined by self report. For FIGS. 1-3, the HUvEC samples were obtained from American Type Culture Collection (Manassas, Va.).\nThe baseline is stabilized after about 20 seconds.\nNanosensors are prepared from carbon fibers."}, "[2]": {"tested_on": "human endothelial cells", "assay": "Acute ONOO− (peroxynitrite) release from human endothelial cells of white and black donors", "type": "cell-based", "conditions": "acute treatment; for Acute ONOO− Release, Black Donors ONOO−: endothelial cells from black donors; for Acute ONOO− Release, White Donors ONOO−: endothelial cells from white donors; for ONOO− (peroxynitrite) release (in words): human endothelial cells", "from_the_text": "as §1, with “Va.). […] However, the amount of OONO^− produced for any of the metabolites was less than that observed for nebivolol. The ratio of NO to OONO^− produced by nebivolol and its glucuronide metabolites was similar following acute administration (Table 4).” for “Va.).”"}},
  "data": [
    {"smiles": "O[C@H](CNC[C@@H](O)[C@H]1CCc2cc(F)ccc2O1)[C@@H]1CCc2cc(F)ccc2O1", "note": "[d-nebivolol, reference compound]", "values": [
      {"measurement": "Acute NO Release, Black Donors NO", "setting": "[1]", "result": "87 ± 6", "unit": "nM"},
      {"measurement": "Acute NO Release, White Donors NO", "setting": "[1]", "result": "127 ± 17", "unit": "nM"},
      {"measurement": "Acute [NO]/[ONOO−] Release Ratio, Black Donors", "setting": "[1]", "result": 0.750},
      {"measurement": "NO release after acute treatment (in words)", "setting": "[1]", "result": "marked improvement"},
      {"measurement": "Acute [NO]/[ONOO−] Release Ratio, White Donors", "setting": "[1]", "result": 1.460},
      {"measurement": "Acute ONOO− Release, Black Donors ONOO−", "setting": "[2]", "result": "116 ± 6", "unit": "nM"},
      {"measurement": "Acute ONOO− Release, White Donors ONOO−", "setting": "[2]", "result": "87 ± 6", "unit": "nM"}
    ]},
    {"smiles": "O=C(O)C1OC(OC(CNCC(O)C2CCc3cc(F)ccc3O2)C2CCc3cc(F)ccc3O2)C(O)C(O)C1O", "note": "[G-UDa, d-Nebivolol-11-O-β-D-glucuronide]", "values": [
      {"measurement": "Acute NO Release, Black Donors NO", "setting": "[1]", "result": "144 ± 10", "unit": "nM"},
      {"measurement": "Acute NO Release, White Donors NO", "setting": "[1]", "result": "202 ± 12", "unit": "nM"},
      {"measurement": "Acute [NO]/[ONOO−] Release Ratio, Black Donors", "setting": "[1]", "result": 0.605},
      {"measurement": "Acute [NO]/[ONOO−] Release Ratio, White Donors", "setting": "[1]", "result": 1.122},
      {"measurement": "Acute ONOO− Release, Black Donors ONOO−", "setting": "[2]", "result": "238 ± 22", "unit": "nM"},
      {"measurement": "Acute ONOO− Release, White Donors ONOO−", "setting": "[2]", "result": "180 ± 16", "unit": "nM"},
      {"measurement": "ONOO− (peroxynitrite) release (in words)", "setting": "[2]", "result": "greatest activity"}
    ]},
    {"smiles": "O=C(O)C1OC(OC(CNCC(O)C2CCc3cc(F)ccc3O2)C2CCc3cc(F)ccc3O2)C(O)C(O)C1O", "note": "(single isomer, unassigned) [G-UDb, l-Nebivolol-11-O-β-D-glucuronide]", "values": [
      {"measurement": "Acute NO Release, Black Donors NO", "setting": "[1]", "result": "139 ± 12", "unit": "nM"},
      {"measurement": "Acute NO Release, White Donors NO", "setting": "[1]", "result": "206 ± 12", "unit": "nM"},
      {"measurement": "Acute [NO]/[ONOO−] Release Ratio, Black Donors", "setting": "[1]", "result": 0.618},
      {"measurement": "Acute [NO]/[ONOO−] Release Ratio, White Donors", "setting": "[1]", "result": 1.144},
      {"measurement": "Acute ONOO− Release, Black Donors ONOO−", "setting": "[2]", "result": "225 ± 16", "unit": "nM"},
      {"measurement": "Acute ONOO− Release, White Donors ONOO−", "setting": "[2]", "result": "180 ± 13", "unit": "nM"},
      {"measurement": "ONOO− (peroxynitrite) release (in words)", "setting": "[2]", "result": "greatest activity"}
    ]},
    {"smiles": "O=C(O)C1OC(OC(CNCC(O)C2CCc3cc(F)ccc3O2)C2CCc3cc(F)ccc3O2)C(O)C(O)C1O", "note": "[G-UDc, d-Nebivolol-11′-O-β-D-glucuronide]", "values": [
      {"measurement": "Acute NO Release, Black Donors NO", "setting": "[1]", "result": "129 ± 10", "unit": "nM"},
      {"measurement": "Acute NO Release, White Donors NO", "setting": "[1]", "result": "188 ± 12", "unit": "nM"},
      {"measurement": "Acute [NO]/[ONOO−] Release Ratio, Black Donors", "setting": "[1]", "result": 0.632},
      {"measurement": "Acute [NO]/[ONOO−] Release Ratio, White Donors", "setting": "[1]", "result": 1.133},
      {"measurement": "Acute ONOO− Release, Black Donors ONOO−", "setting": "[2]", "result": "204 ± 13", "unit": "nM"},
      {"measurement": "Acute ONOO− Release, White Donors ONOO−", "setting": "[2]", "result": "166 ± 13", "unit": "nM"}
    ]},
    {"smiles": "O[C@@H](CNC[C@H](O)[C@H]1CCc2cc(F)ccc2O1)[C@@H]1CCc2cc(F)ccc2O1", "note": "[l-nebivolol, reference compound]", "values": [
      {"measurement": "Acute NO Release, Black Donors NO", "setting": "[1]", "result": "192 ± 9", "unit": "nM"},
      {"measurement": "Acute NO Release, White Donors NO", "setting": "[1]", "result": "268 ± 12", "unit": "nM"},
      {"measurement": "Acute [NO]/[ONOO−] Release Ratio, Black Donors", "setting": "[1]", "result": 0.719},
      {"measurement": "NO release after acute treatment (in words)", "setting": "[1]", "result": "marked improvement"},
      {"measurement": "Acute [NO]/[ONOO−] Release Ratio, White Donors", "setting": "[1]", "result": 1.202},
      {"measurement": "Acute ONOO− Release, Black Donors ONOO−", "setting": "[2]", "result": "267 ± 13", "unit": "nM"},
      {"measurement": "Acute ONOO− Release, White Donors ONOO−", "setting": "[2]", "result": "223 ± 17", "unit": "nM"}
    ]},
    {"smiles": "O=C(O)C1OC(OC(CNCC(O)C2CCc3cc(F)ccc3O2)C2CCc3cc(F)ccc3O2)C(O)C(O)C1O", "note": "(single isomer, unassigned) [G-UDd, l-Nebivolol-11′-O-β-D-glucuronide]", "values": [
      {"measurement": "Acute NO Release, Black Donors NO", "setting": "[1]", "result": "117 ± 8", "unit": "nM"},
      {"measurement": "Acute NO Release, White Donors NO", "setting": "[1]", "result": "161 ± 11", "unit": "nM"},
      {"measurement": "Acute [NO]/[ONOO−] Release Ratio, Black Donors", "setting": "[1]", "result": 0.606},
      {"measurement": "Acute [NO]/[ONOO−] Release Ratio, White Donors", "setting": "[1]", "result": 1.193},
      {"measurement": "Acute ONOO− Release, Black Donors ONOO−", "setting": "[2]", "result": "193 ± 17", "unit": "nM"},
      {"measurement": "Acute ONOO− Release, White Donors ONOO−", "setting": "[2]", "result": "135 ± 13", "unit": "nM"}
    ]},
    {"smiles": "OC(CNCC(O)C1CCc2cc(F)ccc2O1)C1CCc2cc(F)ccc2O1", "note": "(racemic) [nebivolol, α,α′-[iminobismethylene]bis[6-fluoro-3,4-dihydro-2H-1-benzopyran-2-methanol]]", "values": [
      {"measurement": "Acute NO Release, Black Donors NO", "setting": "[1]", "result": "148 ± 10", "unit": "nM"},
      {"measurement": "Acute NO Release, White Donors NO", "setting": "[1]", "result": "218 ± 11", "unit": "nM"},
      {"measurement": "Acute [NO]/[ONOO−] Release Ratio, Black Donors", "setting": "[1]", "result": 0.612},
      {"measurement": "NO release after acute treatment (in words)", "setting": "[1]", "result": "marked improvement"},
      {"measurement": "Acute [NO]/[ONOO−] Release Ratio, White Donors", "setting": "[1]", "result": 1.130},
      {"measurement": "Acute ONOO− Release, Black Donors ONOO−", "setting": "[2]", "result": "242 ± 17", "unit": "nM"},
      {"measurement": "Acute ONOO− Release, White Donors ONOO−", "setting": "[2]", "result": "193 ± 16", "unit": "nM"}
    ]}
  ]
}
